In patent US8999966B2, “Compounds that are ERK inhibitors” (Merck Sharp & Dohme Corp., priority 2010, dated 2015) one finds IC50 data, which are given here for 21 compounds.

pIC50: −log10 of the molar value. Where only a bound is given, the exact number is not on record here.

For this experiment, the target named is fully phosphorylated, active Mouse ERK2 protein (Mus musculus, UniProt P63085). As to the kind of experiment: Active ERK2 assay (AERK2), IMAP format. In kind it is biochemical. The note with it: activated ERK2, IMAP fluorescence polarization, 30 μM ATP. How it is done:
14 μl of kinase buffer (10 mM Tris.HCl pH 7.2, 10 mM MgCl2, 0.01% Tween-20, 1 mM DTT) containing 0.4 ng unphosphorylated Mouse ERK2 protein can be added to each well of a black 384-well assay plate. […] DMSO concentration during initial incubation is 6.7%. ERK2 activity can be determined to be insensitive to DMSO concentrations up to 20%. ERK2 can then be activated and it's kinase activity can be measured by the addition of 10 μl kinase buffer with the following components (final concentration per reaction): 2 ng active (phosphorylated) human MEK1 protein and 4 μM (total) ERK2 IMAP substrate peptides (3.9 μM unlabeled IPTTPITTTYFFFK-CONH2 and 100 nM IPTTPITTTYFFFK(5-carboxyfluorescein)-CONH2) and 30 μM ATP. DMSO concentration during ERK activation can be 4%. After one hour, reactions can be terminated by addition of 60 μl IMAP detections beads in binding buffer (Molecular Devices). Binding can be allowed to equilibrate for 30 minutes before reading the plate on an LJL Analyst Fluorescence Polarization plate reader. […] Active compounds can be reconfirmed in an independent assay.
Activated ERK2 activity was also determined in the IMAP assay format using the procedure outlined above. 1 μl of 25× compound was added to 14 μl of kinase buffer containing 0.25 ng fully phosphorylated, active Mouse ERK2 protein. Following a 30 minute incubation, the reactions were initiated by addition of 10 μl of kinase buffer containing 1 μM ERK2 IMAP substrate peptide (0.9 μM unlabeled IPTTPITTTYFFFK-CONH2 and 100 nM IPTTPITTTYFFFK(5-carboxyfluorescein)-CONH2) and 30 μM ATP. Reactions proceeded for 30 minutes before termination by addition of 60 μl IMAP detection beads in binding buffer. Plates were read as above after 30 minute binding equilibration. Active compounds were reconfirmed in an independent assay.

Chain of fully phosphorylated, active Mouse ERK2 protein (P63085 whole entry): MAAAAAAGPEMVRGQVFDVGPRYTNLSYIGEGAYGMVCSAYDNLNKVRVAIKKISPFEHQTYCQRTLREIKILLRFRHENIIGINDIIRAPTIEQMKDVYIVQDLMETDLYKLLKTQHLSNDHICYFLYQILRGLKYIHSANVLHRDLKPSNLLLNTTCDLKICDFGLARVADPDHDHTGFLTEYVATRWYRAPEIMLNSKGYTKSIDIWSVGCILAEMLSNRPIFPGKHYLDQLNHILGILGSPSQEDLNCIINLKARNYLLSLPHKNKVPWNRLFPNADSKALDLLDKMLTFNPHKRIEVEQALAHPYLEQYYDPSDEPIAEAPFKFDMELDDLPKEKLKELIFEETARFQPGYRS

The compound `COc1cccc(F)c1CN1CCC[C@@H](c2nnc(-c3ccc4[nH]nc(-c5ccc6nn(C)cc6c5)c4c3)o2)C1` [Example 322, 5-[5-[1-[(2-FLUORO-6- METHOXYPHENYL)METHYL]- 3(R)-PIPERIDINYL]-1,3,4- OXADIAZOL-2-YL]-3-(2- METHYL-2H-INDAZOL-5- YL)-1H-INDAZOLE] showed a pIC50 of 7.98 to 9.52. `Cn1cc2cc(-c3n[nH]c4ccc(-c5nnc([C@@H]6CCCN(Cc7cc8ccccc8n7C)C6)o5)cc34)ccc2n1` [Example 321, 3-(2-METHYL-2H-INDAZOL- 5-YL)-5-[5-[1-[(1-METHYL- 1H-INDOL-2-YL)METHYL]- 3(R)-PIPERIDINYL]-1,3,4- OXADIAZOL-2-YL]-1H- INDAZOLE] showed a negative logarithm of the IC50 (pIC50) of less than 6.00. Regarding `COc1cccc(CN2CCC[C@@H](c3nnc(-c4ccc5[nH]nc(-c6ccnc(Cl)c6)c5c4)o3)C2)n1` [Example 361, 3-(2-CHLORO-4-PYRIDINYL)- 5-[5-[1-[(6-METHOXY-2- PYRIDINYL)METHYL]-3(R)- PIPERIDINYL]-1,3,4- OXADIAZOL-2-YL]-1H- INDAZOLE], the pIC50 was not above 6.30. The figure for `CC(=O)Nc1cc(-c2n[nH]c3ccc(-c4nnc([C@@H]5CCCN(Cc6ccc7nccnc7c6)C5)o4)cc23)ccc1O` [Example 316, N-[2-HYDROXY-5-[5-[5-[1-(6- QUINOXALINYLMETHYL)- 3(R)-PIPERIDINYL]-1,3,4- OXADIAZOL-2-YL]-1H- INDAZOL-3- YL]PHENYL]ACETAMIDE] is not above 6.30; for `Clc1cc(-c2n[nH]c3ccc(-c4nnc([C@@H]5CCCN(Cc6cc7ccccc7s6)C5)o4)cc23)ccn1` [Example 359, 5-[5-[1-(BENZO[b]THIEN-2- YLMETHYL)-3(R)- PIPERIDINYL]-1,3,4- OXADIAZOL-2-YL]-3-(2- CHLORO-4-PYRIDINYL)-1H- INDAZOLE] it is not above 6.30; for `CCn1cc(-c2n[nH]c3ccc(-c4nnc([C@@H]5CCCN(Cc6cc7ccccc7n6C)C5)o4)cc23)cn1` [Example 342, 3-(1-ETHYL-1H-PYRAZOL-4- YL)-5-[5-[1-[(1-METHYL-1H- INDOL-2-YL)METHYL]-3(R)- PIPERIDINYL]-1,3,4- OXADIAZOL-2-YL]-1H- INDAZOLE] it is less than 6.00. The figure for `COc1cccc(F)c1CN1CC=CC[C@@H]1c1nc(-c2ccc3[nH]nc(-c4ccc5c(c4)CCO5)c3c2)n[nH]1` [Example 253, 3-(2,3-DIHYDRO-5- BENZOFURANYL)-5-[5-[1-[(2- FLUORO-6- METHOXYPHENYL)METHYL]- 1,2,3,6-TETRAHYDRO- 2(R)-PYRIDINYL]-1H-1,2,4- TRIAZOL-3-YL]-1H- INDAZOLE] is not above 6.30; for `CCn1cc(-c2n[nH]c3ccc(-c4nnc([C@@H]5CCCN(Cc6cc(F)c(Cl)cc6Cl)C5)o4)cc23)cn1` [Example 345, 5-[5-[1-[(2,4-DICHLORO-5- FLUOROPHENYL)METHYL]- 3(R)-PIPERIDINYL]-1,3,4- OXADIAZOL-2-YL]-3-(1- ETHYL-1H-PYRAZOL-4-YL)- 1H-INDAZOLE] it is less than 6.00. The figure for `Fc1ccccc1CN1CCC[C@@H](c2nnc(-c3ccc4[nH]nc(-c5ccc6occc6c5)c4c3)o2)C1` [Example 347, 3-(5-BENZOFURANYL)-5-[5- [1-[(2- FLUOROPHENYL)METHYL]- 3(R)-PIPERIDINYL]-1,3,4- OXADIAZOL-2-YL]-1H- INDAZOLE] is not above 6.30; for `Cc1n[nH]c2ccc(-c3n[nH]c4ccc(-n5cc([C@@H]6CCCN(Cc7c(F)cccc7F)C6)nn5)cc34)cc12` [Example 247, 5-[4-[1-[(2,6- DIFLUOROPHENYL)METHYL]- 3(R)-PIPERIDINYL]-1H- 1,2,3-TRIAZOL-1-YL]-3′- METHYL-3,5′-BI-1H- INDAZOLE] it is not above 6.30.

Take `Cn1cc(CN2CCC[C@@H](c3nnc(-c4ccc5[nH]nc(-c6ccc7nccn7c6)c5c4)o3)C2)c2ccccc21` [Example 328, 3-IMIDAZO[1,2-a]PYRIDIN-6- YL-5-[5-[1-[(1-METHYL-1H- INDOL-3-YL)METHYL]-3(R)- PIPERIDINYL]-1,3,4- OXADIAZOL-2-YL]-1H- INDAZOLE]: the pIC50 was less than 6.00. Consider `Clc1cc(-c2n[nH]c3ccc(-c4nnc([C@@H]5CCCN(Cc6ccncn6)C5)o4)cc23)ccn1` [Example 360, 3-(2-CHLORO-4-PYRIDINYL)- 5-[5-[1-(4- PYRIMIDINYLMETHYL)- 3(R)-PIPERIDINYL]-1,3,4- OXADIAZOL-2-YL]-1H- INDAZOLE], for which the pIC50 is not above 6.30. The same measure for `CC(C)Sc1ccc(-c2n[nH]c3ccc(-c4n[nH]c([C@@H]5CCCN(Cc6c(F)cccc6F)C5)n4)cc23)cc1` [Example 305, 5-[5-[1-[(2,6- DIFLUOROPHENYL)METHYL]- 3(R)-PIPERIDINYL]-1H- 1,2,4-TRIAZOL-3-YL]-3-[4-[(1- METHYLETHYL)THIO]PHEN- YL]-1H-INDAZOLE]: not above 6.30; for `Cn1c(CN2CCC[C@@H](c3nnc(-c4ccc5[nH]nc(-c6ccc7nccn7c6)c5c4)o3)C2)cc2ccccc21` [Example 329, 3-IMIDAZO[1,2-a]PYRIDIN-6- YL-5-[5-[1-[(1-METHYL-1H- INDOL-2-YL)METHYL]-3(R)- PIPERIDINYL]-1,3,4- OXADIAZOL-2-YL]-1H- INDAZOLE]: less than 6.00; for `COc1cccc(F)c1CN1CCC[C@@H](c2nnc(-c3ccc4[nH]nc(-c5ccc6occc6c5)c4c3)o2)C1` [Example 349, 3-(5-BENZOFURANYL)-5-[5- [1-[(2-FLUORO-6- METHOXYPHENYL)METHYL]- 3(R)-PIPERIDINYL]-1,3,4- OXADIAZOL-2-YL]-1H- INDAZOLE]: not above 6.30. The same measure for `COc1cccc(F)c1CN1CCCCC1c1nc(-c2ccc3[nH]nc(-c4ccc(OC(C)C)cc4)c3c2)n[nH]1` (stereo not drawn) [Example 259, 5-[5-[1-[(2-FLUORO-6- METHOXYPHENYL)METHYL]- 2-PIPERIDINYL]-1H-1,2,4- TRIAZOL-3-YL]-3-[4-(1- METHYLETHOXY)PHENYL]- 1H-INDAZOLE]: less than 6.00. The same measure for `Fc1cccc(F)c1CN1CCC[C@@H](c2nnc(-c3ccc4[nH]nc(-c5ccc6occc6c5)c4c3)o2)C1` [Example 348, 3-(5-BENZOFURANYL)-5-[5- [1-[(2,6- DIFLUOROPHENYL)METHYL]- 3(R)-PIPERIDINYL]-1,3,4- OXADIAZOL-2-YL]-1H- INDAZOLE]: less than 6.00; for `c1cc(CN2CCC[C@@H](c3nnc(-c4ccc5[nH]nc(-c6ccc7occc7c6)c5c4)o3)C2)ncn1` [Example 351, 3-(5-BENZOFURANYL)-5-[5- [1-(4- PYRIMIDINYLMETHYL)- 3(R)-PIPERIDINYL]-1,3,4- OXADIAZOL-2-YL]-1H- INDAZOLE]: less than 6.00.

In turn, `C1=CCN(Cc2ccon2)[C@@H](c2nc(-c3ccc4[nH]nc(-c5ccc6c(c5)CCO6)c4c3)n[nH]2)C1` [Example 256, 3-(2,3-DIHYDRO-5- BENZOFURANYL)-5-[5- [1,2,3,6-TETRAHYDRO-1-(3- ISOXAZOLYLMETHYL)-2(R)- PYRIDINYL]-1H-1,2,4- TRIAZOL-3-YL]-1H- INDAZOLE] gave a pIC50 not above 6.30. The compound `COc1cccc(F)c1CN1CCCC(c2ccn(-c3ccc4[nH]nc(-c5ccncc5)c4c3)n2)C1` (stereo not drawn) [Example 368, 5-[3-[1-[(2-FLUORO-6- METHOXYPHENYL)METHYL]- 3-PIPERIDINYL]-1H- PYRAZOL-1-YL]-3-(4- PYRIDINYL)-1H-INDAZOLE] gave a negative-log IC50 (pIC50) of less than 6.00. Compound `Fc1cccc(F)c1CN1CCCC(c2ccn(-c3ccc4[nH]nc(-c5ccncc5)c4c3)n2)C1` (stereo not drawn) [Example 367, 5-[3-[1-[(2,6- DIFLUOROPHENYL)METHYL]- 3-PIPERIDINYL]-1H- PYRAZOL-1-YL]-3-(4- PYRIDINYL)-1H-INDAZOLE] had a pIC50 of less than 6.00.
